According to US11000033B2, “Ketone or oxime compound, and herbicide” (NISSAN CHEMICAL CORPORATION, priority 2014, dated 2021):

Experiments:
Format in all cases: in vivo
Setaria viridis = assay: Test Example 4: herbicidal effect by soil treatment (symbol G); conditions: for G: Setaria viridis, herbicidal effect grade: 320 g/ha
Procedure, shortened: (§1)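 Seeds were sown in sterilized diluvial soil, covered with about 1.5 cm of soil, and the soil surface was sprayed with a water-diluted emulsion of the compound at a predetermined rate. Plants grew in a greenhouse at 25° C. to 30° C.; effects were scored visually 3 weeks after application.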

[1] = system: Echinochloa crus-galli var. crus-galli; assay: Test Example 3: herbicidal effect by foliage application, Wagner pot (symbol H); conditions: application herbicide amount 320 g/ha
Procedure, shortened: (§2)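 Alluvial soil was flooded to a depth of 0.1–0.5 cm, seeded with the weeds and rice, and kept in a greenhouse at 25–30 °C. After 14 days of growth, the foliage received a small-sprayer application of emulsion diluted to the intended rate; injury was rated at 3 weeks.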

Apera spica-venti [2] = assay: Test Example 4: herbicidal effect by soil treatment (symbol L); conditions: for L: Apera spica-venti, herbicidal effect grade: 320 g/ha
Procedure, shortened: as §1

corn = assay: Test Example 5: effect on crop by foliage application, plastic box (symbol c); conditions: 320 g/ha, 3 weeks after application
Procedure, shortened: (§3)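 Crop seed is sown alongside grass and broadleaf weed species in spots in sterilized diluvial soil, then covered to a depth of about 1.5 cm. Plants grow in a greenhouse kept at 25° C. to 30° C.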

rapeseed = assay: Test Example 5: effect on crop by foliage application, plastic box (symbol g); conditions: 320 g/ha, 3 weeks after application
Procedure, shortened: as §3

Apera spica-venti [3] = assay: Test Example 5: herbicidal effect by foliage application, plastic box (symbol L); conditions: 320 g/ha, 3 weeks after application
Procedure, shortened: (§4)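 Greenhouse foliar test: seedlings at 14 days, grown 25° C. to 30° C. in sterilized diluvial soil; compound applied as an aqueous dilution of an emulsion; response read 3 weeks after spraying.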

[4] = system: Echinochloa oryzacola Vasing.; assay: Test Example 2: herbicidal activity, application during weed generation in submerged conditions (symbol A); conditions: Table 23; application herbicide amount 320 g/ha; grade 0-5 by criteria of Test Example 1
Procedure, shortened: (§5)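 Weeds emerging under flooded conditions were treated with compound formulated as an emulsion and diluted with water to the intended herbicide amount, poured onto the surface of 4 cm standing water. Seeds had been co-sown in alluvial soil; plants grew at 25° C. to 30° C. and were assessed after 3 weeks.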

Chenopodium album = assay: Test Example 4: herbicidal effect by soil treatment (symbol O)
Description: Herbicidal Effect Test by Soil Treatment
Sterilized diluvial soil was placed in a plastic box having a length of 21 cm, a width of 13 cm, and a depth of 7 cm. Each of the seeds of Digitaria ciliaris, Setaria viridis, Echinochloa crus-galli var. crus-galli, Avena fatua, Alopecurus myosuroides, Lolium multiflorum Lam., Apera spica-venti, Abutilon theophrasti, Amaranthus retroflexus, Chenopodium album, Stellaria media, Galium spurium, Veronica persica, corn, soybean, rice, wheat, beet, and rapeseed was sowed in a spot-like manner and was covered with the soil of a thickness of about 1.5 cm. Subsequently, the emulsion agent of the compound present invention prepared in accordance with Formulation Example 2 was diluted with water so as to be a predetermined herbicide amount and the diluted emulsion agent was uniformly applied to the surface of the soil with a small-size spray. The plastic box was placed in a greenhouse of 25° C. to 30° C. to grow plant. 3 weeks later from the herbicide application, the effect to each plant was investigated in accordance with the criteria of Test Example 1.

Cyperus difformis = assay: Test Example 3: herbicidal effect by foliage application, Wagner pot (symbol E); conditions: application herbicide amount 320 g/ha
Procedure, shortened: as §2

Scirpus juncoides [5] = assay: Test Example 1: herbicidal activity, application before weed generation in submerged conditions (symbol B); conditions: application herbicide amount 320 g/ha
Procedure, shortened: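 Application before weed emergence: an aqueous dilution of the emulsion formulation was poured onto the surface of 4 cm-deep floodwater on the day of sowing. Effect was judged after 3 weeks (greenhouse, 25–30 °C).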

Avena fatua = assay: Test Example 4: herbicidal effect by soil treatment (symbol I); conditions: for I: Avena fatua, herbicidal effect grade: 320 g/ha
Procedure, shortened: as §1

Alopecurus myosuroides [6] = assay: Test Example 4: herbicidal effect by soil treatment (symbol J); conditions: for J: Alopecurus myosuroides, herbicidal effect grade: 320 g/ha
Procedure, shortened: as §1

Alopecurus myosuroides [7] = assay: Test Example 5: herbicidal effect by foliage application, plastic box (symbol J); conditions: 320 g/ha, 3 weeks after application
Procedure, shortened: as §4

Scirpus juncoides [8] = assay: Test Example 2: herbicidal activity, application during weed generation in submerged conditions (symbol B); conditions: Table 23; application herbicide amount 320 g/ha; grade 0-5 by criteria of Test Example 1
Procedure, shortened: as §5

Abutilon theophrasti = assay: Test Example 4: herbicidal effect by soil treatment (symbol M); conditions: for M: Abutilon theophrasti, herbicidal effect grade: 320 g/ha
Procedure, shortened: as §1

Veronica persica = assay: Test Example 4: herbicidal effect by soil treatment (symbol R)
Procedure, shortened: as §1

[9] = application herbicide amount 320 g/ha

Compound	G: Setaria viridis, herbicidal effect grade (Setaria viridis)	herbicidal effect on H (Echinochloa crus-galli var. crus-galli), grade 0-5 [1]	L: Apera spica-venti, herbicidal effect grade (Apera spica-venti [2])	c: corn, effect on crop (criteria 0-5) (corn)	g: rapeseed, effect on crop (criteria 0-5) (rapeseed)	L: Apera spica-venti, herbicidal effect (criteria 0-5) (Apera spica-venti [3])	Herbicidal effect grade, A: Echinochloa oryzacola Vasing. [4]	herbicidal effect on E, grade 0-5 (Cyperus difformis)	Herbicidal effect grade, B: Scirpus juncoides (Scirpus juncoides [5])	I: Avena fatua, herbicidal effect grade (Avena fatua)	J: Alopecurus myosuroides, herbicidal effect grade (Alopecurus myosuroides [6])	J: Alopecurus myosuroides, herbicidal effect (criteria 0-5) (Alopecurus myosuroides [7])	Herbicidal effect grade, B: Scirpus juncoides (Scirpus juncoides [8])	M: Abutilon theophrasti, herbicidal effect grade (Abutilon theophrasti)	c: corn, effect on crop grade (corn)	g: rapeseed, effect on crop grade (rapeseed)	L: Apera spica-venti, herbicidal effect grade (Apera spica-venti [3])	J: Alopecurus myosuroides, herbicidal effect grade (Alopecurus myosuroides [7])	further results
CON=C(C)CC1CC(OC(=O)CN(C)C(=O)c2ccccc2)=C(c2c(C)cc(C)cc2C)C1=O (stereo not drawn) [1-139]	5 (Herbicidal ratio of 90% or more (almost completely withered))	5 (Herbicidal ratio of 90% or more (almost completely withered))	5 (Herbicidal ratio of 90% or more (almost completely withered))	5 (Herbicidal ratio of 90% or more (almost completely withered))	4 (Herbicidal ratio of 70% or higher and lower than 90%)	5 (Herbicidal ratio of 90% or more (almost completely withered))	5 (Herbicidal ratio of 90% or more (almost completely withered))	5 (Herbicidal ratio of 90% or more (almost completely withered))	4 (Herbicidal ratio of 70% or higher and lower than 90%)	4 (Herbicidal ratio of 70% or higher and lower than 90%)	5 (Herbicidal ratio of 90% or more (almost completely withered))	5 (Herbicidal ratio of 90% or more (almost completely withered))	4 (Herbicidal ratio of 70% or higher and lower than 90%)	4 (Herbicidal ratio of 70% or higher and lower than 90%)	–	–	–	–	O: Chenopodium album, herbicidal effect grade (Chenopodium album; 320 g/ha): 0 (Herbicidal ratio of 5% or lower (almost no effect))
CON=C(C)CC1CC(OC(C)=O)=C(c2c(C)cc(C)cc2C)C1=O (stereo not drawn) [1-005]	–	5 (Herbicidal ratio of 90% or more (almost completely withered))	–	–	–	–	5 (Herbicidal ratio of 90% or more (almost completely withered))	5 (Herbicidal ratio of 90% or more (almost completely withered))	5 (Herbicidal ratio of 90% or more (almost completely withered))	–	–	–	4 (Herbicidal ratio of 70% or higher and lower than 90%)	–	5 (Herbicidal ratio of 90% or more (almost completely withered))	4 (Herbicidal ratio of 70% or higher and lower than 90%)	5 (Herbicidal ratio of 90% or more (almost completely withered))	5 (Herbicidal ratio of 90% or more (almost completely withered))	G (Setaria viridis) herbicidal effect grade (Setaria viridis; [9]): 3 (Herbicidal ratio of 40% or higher and lower than 70%); L (Apera spica-venti) herbicidal effect grade (Apera spica-venti [2]; [9]): 5 (Herbicidal ratio of 90% or more (almost completely withered)); O (Chenopodium album) herbicidal effect grade (Chenopodium album; [9]): 0 (Herbicidal ratio of 5% or lower (almost no effect)); I (Avena fatua) herbicidal effect grade (Avena fatua; [9]): 5 (Herbicidal ratio of 90% or more (almost completely withered)); J (Alopecurus myosuroides) herbicidal effect grade (Alopecurus myosuroides [6]; [9]): 5 (Herbicidal ratio of 90% or more (almost completely withered)); M (Abutilon theophrasti) herbicidal effect grade (Abutilon theophrasti; [9]): 5 (Herbicidal ratio of 90% or more (almost completely withered))
COCCON=C(CC1CC(O)=C(c2c(C)cc(-n3cc(Cl)cn3)cc2C)C1=O)C1CC1 (stereo not drawn) [9-020]	–	–	–	–	–	–	4 (Herbicidal ratio of 70% or higher and lower than 90%)	–	–	–	–	–	4 (Herbicidal ratio of 70% or higher and lower than 90%)	–	5 (Herbicidal ratio of 90% or more (almost completely withered))	4 (Herbicidal ratio of 70% or higher and lower than 90%)	4 (Herbicidal ratio of 70% or higher and lower than 90%)	5 (Herbicidal ratio of 90% or more (almost completely withered))	Herbicidal effect grade, G: Setaria viridis (Setaria viridis; [9]): 5 (Herbicidal ratio of 90% or more (almost completely withered)); H (Echinochloa crus-galli var. crus-galli) herbicidal effect grade ([1]; Table 24): 5 (Herbicidal ratio of 90% or more (almost completely withered)); Herbicidal effect grade, R: Veronica persica (Veronica persica; [9]): 0 (Herbicidal ratio of 5% or lower (almost no effect)); Herbicidal effect grade, L: Apera spica-venti (Apera spica-venti [2]; [9]): 4 (Herbicidal ratio of 70% or higher and lower than 90%); E herbicidal effect grade (Cyperus difformis; Table 24): 5 (Herbicidal ratio of 90% or more (almost completely withered)); B (Scirpus juncoides) herbicidal effect grade (Scirpus juncoides [5]): 4 (Herbicidal ratio of 70% or higher and lower than 90%); Herbicidal effect grade, I: Avena fatua (Avena fatua; [9]): 0 (Herbicidal ratio of 5% or lower (almost no effect)); Herbicidal effect grade, J: Alopecurus myosuroides (Alopecurus myosuroides [6]; [9]): 3 (Herbicidal ratio of 40% or higher and lower than 70%); Herbicidal effect grade, M: Abutilon theophrasti (Abutilon theophrasti; [9]): 3 (Herbicidal ratio of 40% or higher and lower than 70%)
CON=C(C)CC1CC(OC(=O)C(CSC)=NOC)=C(c2c(C)cc(C)cc2C)C1=O (stereo not drawn) [1-098]	5 (Herbicidal ratio of 90% or more (almost completely withered))	5 (Herbicidal ratio of 90% or more (almost completely withered))	5 (Herbicidal ratio of 90% or more (almost completely withered))	5 (Herbicidal ratio of 90% or more (almost completely withered))	5 (Herbicidal ratio of 90% or more (almost completely withered))	5 (Herbicidal ratio of 90% or more (almost completely withered))	5 (Herbicidal ratio of 90% or more (almost completely withered))	5 (Herbicidal ratio of 90% or more (almost completely withered))	5 (Herbicidal ratio of 90% or more (almost completely withered))	2 (Herbicidal ratio of 20% or higher and lower than 40%)	5 (Herbicidal ratio of 90% or more (almost completely withered))	5 (Herbicidal ratio of 90% or more (almost completely withered))	4 (Herbicidal ratio of 70% or higher and lower than 90%)	4 (Herbicidal ratio of 70% or higher and lower than 90%)	–	–	–	–	R: Veronica persica, herbicidal effect grade (Veronica persica; 320 g/ha): 0 (Herbicidal ratio of 5% or lower (almost no effect))
